Results from patent US20190055517A1, “Cell Line of M2c Macrophage and Its Applications” (National Pingtung University of Science and Technology, priority 2017, published 2019).

Key:
Assay type in all cases: cell-based
murine M2 macrophage [1] = test: Macrophage surface protein MERTK expression by flow cytometry; conditions: versus control, LPS and IL-4 groups, p<0.05, FIG. 15
Procedure: (§1) Embodiment 1 is prepared by the steps described above, isolate monocytes from murine bone marrow and use M-CSF to induce differentiation of M2 macrophage, and then use baicalin to induce M2C macrophage polarization. In comparison 1, incubate murine M2 macrophage in RPMI 1640 (10% FCS) containing LPS (lipopolysaccharide, 1 μg/ml, Sigma-Aldrich) for 2 hours. In comparison 2, incubate murine M2 macrophage in medium containing IL-4 ([…] Guidance System, Cambridge, UK) for 24 hours. The control group of M2 macrophage is incubated in RPMI 1640 (10% FCS) without any drugs. The conditions are shown below in chart 2.
In this example, experiment was performed to further test whether M2C treated by baicalin can express MERTK protein. Using flow cytometry to evaluate macrophage surface protein MERTK expression level in embodiment 1, comparison 1, 2, and the control group is cultured in RPMI 1640 (10% FCS) without any drugs. Result was shown in FIG. 14, after fluorescence staining, fluorescence MERTK marker binding was detected in approximately 80% of cells in every group. […] M2C cells treated with baicalin can promote macrophages to express MERTK protein, and the efficacy is greater than LPS and IL-4.

[2] = system: M2 cell line from murine bone marrow; test: Efferocytosis of CFSE-marked apoptotic cells by macrophages (flow cytometry PE-MERTK / CFSE); conditions: apoptotic cells : M2 3:2, 2 hours, p<0.05, FIG. 21
Procedure: Efficacy evaluation of apoptotic cells efferocytosis in macrophages: method of the evaluation for effectiveness of apoptotic cells efferocytosis in M2 macrophage induced differentiated by different drugs were slightly modified based on previous studies (Li et al., Yancey et al., and Jehle et al; Liu st al and Lilis at al 2008). Detail steps are described below. Use 3 μM CFSE Cell Trace (Thermofisher, USA) to mark RAW264.7 macrophage cell line for 20 minutes under 37° C., then wash with PBS. Culture cells for 24 hours, then use the 1.5 mM H2O2 following the aforementioned steps to induce RAW264.7 macrophage cell to differentiate into apoptotic cells. […] Lastly, use flow cytometry (FACS BD ARIA II, BD Bioscience, USA) to examine fluorescence performance, if both PE-MERTK and CFSE appear positive, the cell will be identified as the M2C macrophages that efferocytosed the aforementioned apoptotic cells.
Results of fluorescence expression of stained apoptotic cells, macrophages and efferocytotic macrophages detected by flow cytometry are shown in FIG. 20. Apoptotic cells induced by H2O2 (1.5 mM) and express FITC fluorescence after FITC-CFSE staining are distributed in P4 region. Differentiated M2 macrophage expresses MERTK are detected by the expressed PE fluorescence after PE-MERTK staining, which is distributed in P5 region. […]

murine M2 macrophage [3] = test: Macrophage phenotype by flow cytometry (CD86, CD206) after drug-induced differentiation; conditions: conditions of chart 2, p<0.05, FIG. 3
Procedure: Use PBS containing 0.5% BSA to flush out bone marrow cells from murine (C57BL/6J, 8-20 weeks, Taiwan National Laboratory Animal Center) femur, then use Ficoll-Hypaque (GE healthcare, SWEDEN) to isolate monocytes.
Then, incubate 2×10^6 monocytes in 50 ng/ml M-CSF contained RPMI 1640 (10% FCS) medium under 37° c., 5% CO2 for seven days to induce M2 macrophage polarization. On the eighth day, collect 2×10^5 M2 macrophage and incubate them in RPMI 1640 (10% FCS) medium with Baicalin (50 μM, Tokyo Chemical Industry, JAPAN) for 24 hours. Baicalin will induce M2 macrophage to differentiate into M2C macrophage.
as §1
After induced differentiation is complete, use flow cytometry to analyse the macrophage phenotype, in the meantime, also use real time PCR (qPCR) to observe mRNA expression level of each gene.
FIG. 2˜4 show results of macrophage phenotypes analysed by flow cytometry.

O=C(O)[C@H]1O[C@@H](Oc2cc3oc(-c4ccccc4)cc(=O)c3c(O)c2O)[C@H](O)[C@@H](O)[C@@H]1O [Baicalin]
average MERTK expression level in one single cell (mean fluorescence intensity) (murine M2 macrophage [1]): two times higher
mean fluorescence intensity of MERTK of single M2 macrophage ([2]; cells expressing CFSE): significantly higher than other drug treated groups and control group
mean fluorescence intensity of CFSE of single M2 macrophage ([2]; cells expressing MERTK): significantly higher than other drug treated groups and control group
percentage of cells expressing CD86 and CD206 (murine M2 macrophage [3]): lower than both comparison 1 and 2
